Measured values taken from patent EP4817614A1, “COMPOSITION AND METHOD FOR TREATING AUTOIMMUNE DISEASES” (GNT Pharma Co., Ltd., priority 2023, dated 2025).

Columns and labels:
[1] = system: imiquimod (IMQ)-induced lupus model; test: imiquimod (IMQ)-induced lupus (SLE) mouse model; type: in vivo, Female BALB/C mice; details: for spleen index (organ weight/body weight x 100%): Fig. 1b; for follicle diameter / number of splenic follicles: H&E stained spleen sections, Fig. 2b-2c; for anti-dsDNA titers: SLE mouse serum, ELISA (IgG specific), Fig. 3
Method: The goal of this Example was to investigate the effects of compound 2 in the imiquimod (IMQ)-induced lupus model, which is widely used as one of the induced SLE models.
Female BALB/C mice weighing 18-20 g were supplied by Saeron Bio Co., Ltd. (Korea) and acclimatized for 7 days. The animals were housed in separate cages with free access to laboratory feed and water. During the experiment, the animals were maintained at 23±3°C and 50±10% relative humidity with a 12-hour light-dark cycle. The animals were treated according to a protocol approved by the Animal Ethics Committee of GNT Pharmaceuticals. The mice were randomly divided into four groups: a normal group (n=6), a control SLE group (vehicle group, n=8), an IMQ+Compound 2 group (Compound 2 treatment group, n=4), and an IMQ+N-acetylcysteine group (NAC treatment group, n=8). All IMQ treatment groups were administered 5% imiquimod cream (Aldara Cream, Dong-A Pharmaceutical Co., Ltd.) topically to the right ear at a dose of 1.25 mg daily every other day for 4 weeks. Compound 2 (5 mg/kg, twice daily) was orally administered to the IMQ+Compound 2 group for 4 weeks, followed by concurrent IMQ treatment. N-acetyl Cysteine (150 mg/kg, once daily, adjusted to pH 7.5-8.0) was administered intraperitoneally to the IMQ+NAC group for 4 weeks along with IMQ treatment.
Mice were anesthetized with pentobarbital at the end of the experiment. Blood was collected through cardiac blood sampling. Within 30 minutes of collection, serum was separated from whole blood using EDTA by centrifugation at 12,000 g for 10 minutes. The extracted spleen was weighed, then the tissue was heated to 60°C, washed with xylene, and immersed in ethanol at gradient concentrations. The sections were H&E stained (BBC Biochemical, Washington State Mount Vernon) and then imaging was performed under a microscope. Observation was conducted through five fields of view at 10x magnification, and the number of spleen alba pulps (follicles) was counted. In addition, the diameter of the spleen alba pulp was observed using a micrometer. The diameter of the alba pulp was measured vertically and horizontally, and the average was calculated. Using a commercially available enzyme-linked immunosorbent assay (ELISA) kit (LBIS Mouse anti-dsDNA ELISA, Fujifilm Wako Shibayagi Co., Ltd., Richmond, Virginia, USA) serum anti-dsDNA (IgG specific) concentration was analyzed.

[2] = target: T1, microsomal prostaglandin E synthase-1 (mPGES-1) (Homo sapiens, UniProt O14684); details: previous studies; cited from earlier work
T1 sequence (O14684 1-152): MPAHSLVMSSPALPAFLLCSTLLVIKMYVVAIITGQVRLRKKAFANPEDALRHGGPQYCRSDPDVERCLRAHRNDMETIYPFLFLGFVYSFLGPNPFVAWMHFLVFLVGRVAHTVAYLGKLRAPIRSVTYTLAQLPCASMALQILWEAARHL

[3] = system: mouse model of amyotrophic lateral sclerosis; details: previous studies, ALS mouse model; cited from earlier work
EAE mouse model = test: experimental autoimmune encephalomyelitis (EAE) mouse model; type: in vivo, female C57BL/6 mice
From the text: Multiple sclerosis (MS) is a neurological autoimmune disease in which the body's immune system attacks the cells of myelin, the protective sheath surrounding the […] of the brain and spinal cord. Until now, EAE has been well known as a preclinical model associated with multiple sclerosis. Therefore, an EAE mouse model was used to confirm the effects of compound 2 on autoimmune diseases.
The EAE mouse model was induced in 6-week-old female C57BL/6 mice. Mice were divided into three groups: 6 mice were placed in the normal group, and 8 mice were placed in the control EAE group (vehicle group) and the EAE + Compound 2 group (Compound 2 treatment group), respectively. In the mice, 200 µg of oligodendrocyte glycoprotein peptide myelin oligodendrocyte glycoprotein 35-55 (MOG35-55, Prospecbio , Israel) emulsified in 400 µg of complete Freund's adjuvant (CFA, Sigma, USA) was inoculated. The emulsion was injected into both sides of each mouse. Subsequently, 200 ng of pertussis toxin (Sigma, USA) was injected intraperitoneally on days 0 and 2. Compound 2 was injected intraperitoneally at a dose of 3.3 mg/kg every 24 hours for 7 days starting on day 9. In the control EAE group, PBS was injected intraperitoneally. Clinical signs associated with EAE were monitored daily and rated on a scale of 0 to 5: Grade 0, no apparent clinical symptoms; Grade 0.5, partial tail paralysis; Grade 1, tail paralysis or waddling gait; Grade 1.5, partial tail paralysis and waddling gait; Grade 2, tail paralysis and waddling gait; Grade 2.5, partial quadriplegia; Grade 3, unilateral limb paralysis; Grade 3.5, unilateral paralysis and partial paralysis of the other limb; Grade 4, bilateral paralysis; Grade 4.5, coma; Grade 5, death.
On day 25 after EAE induction, mice were euthanized by exposure to CO2, and spleens were extracted. RNA expression in the spleen was analyzed using Applied Biosystems™QuantStudio 5 qPCR system (Thermofisher, USA) with AMPIGENE qPCR Green Mix Hyrox (Thermofisher, USA), including […] forward and reverse primers (Bionics Korea) and SYBR green dye (Enzo Life Sciences, Farmingdale , NY, USA). The expression levels of each gene were standardized to glyceraldehyde 3-phosphate dehydrogenase (GAPDH) and compared to the expression levels of the normal or control EAE groups. To evaluate the effect of compound 2 on Treg, mouse splenocyte preparations were stained with the Treg detection kit (CD4/CD25/FoxP3) (Miltenyi Biotech, Germany) according to the manufacturer's instructions, and the Treg population was evaluated using flow cytometry. The data was analyzed using FlowJo™ 10.8.1 software.

[4] = system: imiquimod (IMQ)-induced psoriasis model; test: imiquimod (IMQ)-induced psoriasis mouse model; type: in vivo, Male BALB/C mice
From the text: The goal of this Example was to investigate the effect of compound 2 in the imiquimod (IMQ)-induced psoriasis model, which is widely used as one of the induced psoriasis models.
For the experiment, psoriasis was induced using imiquimod (IMQ). The IMQ-induced psoriasis mouse model is one of the most widely used models for studying psoriasis. IMQ is a Toll-like receptor-7/8 (TLR-7/8) agonist used to treat actinic keratosis and basal cell carcinoma. It is known that topical application of IMQ cream to the skin of mice recruits immune cells and activates macrophages, monocytes, and dendritic cells to secrete inflammatory cytokines. The IMQ-induced psoriasis mouse model is known to be very similar to human psoriasis in terms of skin erythema, keratinization, epidermal changes (acanthosis), and inflammatory infiltration consisting of T cells, neutrophils, and dendritic cells.
Male BALB/C mice weighing 20-22 g were supplied by Saeron Bio Co., Ltd. (Korea) and acclimatized for 7 days. The animals were housed in separate cages with free access to laboratory feed and water. During the experiment, the animals were maintained at 23±3°C and 50±10% relative humidity with a 12-hour light-dark cycle. The animals were treated according to a protocol approved by the Animal Ethics Committee of GNT Pharmaceuticals. The mice were randomly divided into three groups: a normal group (n=5), a control psoriasis group (Vehicle group, n=8), and an IMQ+Compound 2 group (compound 2 treatment group, n=9). All IMQ treatment groups were administered 5% imiquimod cream (Aldara Cream, Dong-A Pharmaceutical Co., Ltd.) topically to shaved backs at a dose of 62.5 mg per day for 6 days. Compound 2 (5 mg/kg, twice daily) was orally administered to the IMQ+Compound 2 group for 6 days, followed by IMQ treatment.
To evaluate the anti-psoriatic effects of compound 2, the severity of psoriasis was monitored using an IMQ-induced psoriasis mouse model. The Psoriasis Skin PASI score is used to assess the severity of skin lesions in mice.
After confirming the therapeutic effect of compound 2 on psoriasis-like symptoms in mice, histological analysis was performed to identify histological changes occurring in psoriatic skin and methods of improvement.
Mice were anesthetized with pentobarbital at the end of the experiment. Blood was collected by cardiac blood sampling. Within 30 minutes of collection, serum was separated from whole blood using EDTA by centrifugation at 12,000 g for 10 minutes. The weight of the extracted spleen was measured.

[5] = SLE mice, 4 weeks, compound 2 5 mg/kg twice daily oral, NAC 150 mg/kg once daily i.p., versus control SLE group
[6] = spleen RNA, qPCR, versus control EAE group, Fig. 6
[7] = Masson's trichrome staining, Fig. 10

In the case of `O=C(O)c1cc(NCCc2ccc(C(F)(F)F)cc2)ccc1O` [compound 2, 2-hydroxy-5-[2-(4-trifluoromethyl-phenyl)-ethylamino]-benzoic acid], the spleen size ([1]; SLE mice, 4 weeks, compound 2 5 mg/kg twice daily oral, NAC 150 mg/kg once daily i.p., versus control SLE group, Fig. 1a) is reported as “smaller than that of the control SLE group”, the “spleen index (organ weight/body weight x 100%)” value [1, 5] is reported as “significantly lower than that of the control SLE group” and the follicle diameter ([1]; SLE mice) is reported as “significantly decreased”. For the same molecule, the “number of splenic follicles” value ([1]; SLE mice) was “significantly increased”, the anti-dsDNA titers [1] was “significantly reduced” and the mPGES-1 inhibition [2] was “inhibitor at nanomolar concentrations”. For the same molecule, the “neuronal death, motor function and lifespan” value [3] was “block neuronal death, lateral sclerosis, and autophagocytosis formation, as well as activate motor function and increase lifespan”, the onset date (EAE mouse model; EAE mice, compared with control EAE group) was “similar” and the Clinical signs (EAE mouse model; EAE mice, compound 2 3.3 mg/kg i.p. every 24 hours for 7 days from day 9, scale 0 to 5, Fig. 4) was “effectively alleviated”. For the same molecule, the CD206 expression (EAE mouse model; [6]) was “significantly increased”, the “expression of IFN-γ” value (EAE mouse model; [6]) was “lower” and the “expression of TNF-α” value (EAE mouse model; [6]) was “lower”. For the same molecule, the iNOS expression (EAE mouse model; [6]) was “significantly lower”, the “number of Treg cells (CD4+CD25+Foxp3+)” value (EAE mouse model; splenocytes, flow cytometry, versus control EAE group, Fig. 7) was “significantly higher” and the “epidermal thickening (acanthosis) and elongation of the rate ridges” value ([4]; H&E histopathology of skin lesions, versus IMQ alone, Fig. 9a) was “significant inhibition”. The epidermal thickness ([4]; H&E-stained dorsal skin, Fig. 9b) was “significantly reduced”, the spleen index ([4]; IMQ-induced psoriasis mice, versus control psoriasis group, Fig. 11b) was “decreased” and the “spleen size and weight” value ([4]; IMQ-induced psoriasis mice, Fig. 11a) was “decreased”. The “collagen pattern in the dermis” value [4, 7] was “much more compressed collagen pattern”, the psoriasis-like inflammation [4, 7] was “potently inhibited” and the PASI scores ([4]; psoriasis mice, compound 2 5 mg/kg twice daily oral for 6 days, versus control psoriasis group, Figs. 8b-8e) was “significantly lower score than the control psoriasis group”.

With `CC(=O)N[C@@H](CS)C(=O)O` [NAC, N-acetylcysteine, reference compound] the “spleen index (organ weight/body weight x 100%)” value [1, 5] was “no significant difference”, the follicle diameter ([1]; SLE mice) was “did not show a beneficial effect” and the “number of splenic follicles” value ([1]; SLE mice) was “did not show a beneficial effect”. The anti-dsDNA titers [1] was “no effect”.
